From EP4420684A1, “DNA TOXIC DIMER COMPOUND AND CONJUGATE THEREOF” (Systimmune, Inc., priority 2022, dated 2023)

Key:
SK-BR-3 tumor cells = test: In vitro activity test (MTS, 5 days), growth inhibition of SK-BR-3 cells; format: cell-based; settings: Homo sapiens, 120 h
Procedure: • Cells: derived from the Cell Bank of the Chinese Academy of Sciences; • Tumor cell culture medium: Gibco™; • Fetal Bovine Serum (FBS): BIOWEST™;
• Growth medium (with 10% FBS, Penicillin/streptomycin (100 U/mL); • Assay medium (with 1% FBS, Penicillin/streptomycin (100 U/mL);
The biosafety cabinet was turned on for UV light irradiation 30 min in advance, and subsequently ventilated for 3 minutes. The growth medium, assay medium, D-PBS and trypsin were preheated in a 37°C thermostatic water bath, after which the surface was sterilized with alcohol and placed in the biosafety cabinet. Cells with a confluence of ~80% (logarithmic growth phase) were selected and placed in a biosafety cabinet, old medium was aspirated off, rinsed with D-PBS, aspirated and discarded, digested with trypsin for 2-3 minutes, after which growth medium was added to terminate the trypsin, and centrifuged at 500 × g for 5 minutes. The centrifugation supernatant was aspirated off, and the cells were mixed with 4 mL of assay medium, and 100 uL of the cells were taken for counting (of which 50 uL of cytosol was taken out, and 50 uL of 0.4% cell solution was added to 50 µL of 0.4% Trypan Blue Stain and mix, count after mixing). Spread the plate according to the previously set cell number, 80 uL/well in 96-well plate, wells E11, F11, G11 only received 80 uL of detection medium, the wells on the edge received 200 uL of DPBS to seal the edge. After the cells are completely attached to the wall (usually at least 4 hours), the test samples were configured and diluted: 1.0 mL of 2.5 µM (5 ×Top Dose) test samples were configured with the assay medium and dispensed into the first column of the V-type 96-well plate, with 200 µL in each well; 180 µL of assay medium was added to the second through eighth columns, and 30 µL was added to the second column from the first column, and mixed up and down with a row gun for […]. The test medium was mixed up and down 10 times with a row gun, discard the gun tip, and the remaining test concentration points were operated sequentially to perform 7-fold gradient concentration dilution. […]
The MTS reagent was removed from the test samples after 5 days of action, thawed at room temperature and protected from light, vortexed and mixed thoroughly, and then 20 µL of Cell Titer One Solution Reagen MTS reagent was added along the side wall of the wells for every 100 µL of cell culture volume in a biosafety cabinet. […] After the end of the reaction, took out the 96-well plate, placed in the enzyme labeling instrument to detect the OD490 nm absorbance value, and performed the data recording, organization and storage.

N87 tumor cells = test: In vitro activity test (MTS, 5 days), growth inhibition of N87 cells; format: cell-based; settings: 120 h
Procedure: The biosafety cabinet was turned on for UV light irradiation 30 min in advance, and subsequently ventilated for 3 minutes. The growth medium, assay medium, D-PBS and trypsin were preheated in a 37°C thermostatic water bath, after which the surface was sterilized with alcohol and placed in the biosafety cabinet. Cells with a confluence of ~80% (logarithmic growth phase) were selected and placed in a biosafety cabinet, old medium was aspirated off, rinsed with D-PBS, aspirated and discarded, digested with trypsin for 2-3 minutes, after which growth medium was added to terminate the trypsin, and centrifuged at 500 × g for 5 minutes. The centrifugation supernatant was aspirated off, and the cells were mixed with 4 mL of assay medium, and 100 uL of the cells were taken for counting (of which 50 uL of cytosol was taken out, and 50 uL of 0.4% cell solution was added to 50 µL of 0.4% Trypan Blue Stain and mix, count after mixing). Spread the plate according to the previously set cell number, 80 uL/well in 96-well plate, wells E11, F11, G11 only received 80 uL of detection medium, the wells on the edge received 200 uL of DPBS to seal the edge. […]

COc1ccc(C2=CN3C(=O)c4cc(OC)c(OCC56CC(C(=O)N7C[C@@H](CCl)c8c7cc(O)c7cccc(C)c87)(C5)C6)cc4N=C[C@@H]3C2)cc1 [Compound A]
IC50 (SK-BR-3 tumor cells): 0.52 nM

COc1cc2c(cc1OCC13CC(C(=O)N4C[C@@H](CCl)c5c4cc(O)c4cccc(C)c54)(C1)C3)N=C[C@@H]1CC(c3ccc(NC(=O)CO)cc3)=CN1C2=O [Compound B1]
IC50 (SK-BR-3 tumor cells): 4.23 nM | IC50 (N87 tumor cells): 5.03 nM

COc1cc2c(cc1OCCCCC(=O)N1C[C@@H](CCl)c3c1cc(O)c1cccc(C)c31)N=C[C@@H]1CC(c3ccc(NC(=O)CO)cc3)=CN1C2=O [Compound C1]
IC50 (SK-BR-3 tumor cells): 8.67 nM | IC50 (N87 tumor cells): 9.68 nM

COc1cc2c(cc1OCCCCC(=O)N1C[C@@H](CCl)c3c1cc(O)c1cccc(C)c31)N=C[C@@H]1Cc3ccc(NC(=O)CO)cc3N1C2=O [Compound D1]
IC50 (SK-BR-3 tumor cells): 10.3 nM | IC50 (N87 tumor cells): 12.3 nM
